Measured values as given in ChEMBL document CHEMBL1201862, “PubChem BioAssay data set” (2004).
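How tested: cells in 96-well plates exposed to compound for 48 hours at five concentrations. Abbreviation: GI50, concentration required for 50% inhibition of growth.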 Activity calls are given as the source filed them. Cut-off read from the data, not from the text of the source: active = GI50 up to about 1.1 µM and inactive = higher.

Key:
Assay in all cases: DTP human tumour cell line panel, 48 h
786-0 = tested on: 786-0
A498 = tested on: A498
A549 = tested on: A549
ACHN = tested on: ACHN
BT-549 = tested on: BT-549
CAKI-1 = tested on: CAKI-1
CCRF-CEM = tested on: CCRF-CEM
COLO 205 = tested on: COLO 205
DU-145 = tested on: DU-145
EKVX = tested on: EKVX
HCT-116 = tested on: HCT-116
HCT-15 = tested on: HCT-15
HL-60 = tested on: HL-60
HOP-62 = tested on: HOP-62
HOP-92 = tested on: HOP-92
HT-29 = tested on: HT-29
Hs-578T = tested on: Hs-578T
IGROV-1 = tested on: IGROV-1
K562 = tested on: K562
KM12 = tested on: KM12
LOX IMVI = tested on: LOX IMVI
M14 = tested on: M14
MDA-MB-231 = tested on: MDA-MB-231
MDA-MB-435 = tested on: MDA-MB-435
MDA-N = tested on: MDA-N
MOLT-4 = tested on: MOLT-4
Malme-3M = tested on: Malme-3M
NCI-H226 = tested on: NCI-H226
NCI-H23 = tested on: NCI-H23
NCI-H460 = tested on: NCI-H460
NCI-H522 = tested on: NCI-H522
NCI/ADR-RES = tested on: NCI/ADR-RES
OVCAR-3 = tested on: OVCAR-3
OVCAR-5 = tested on: OVCAR-5
OVCAR-8 = tested on: OVCAR-8
PC-3 = tested on: PC-3
RPMI-8226 = tested on: RPMI-8226
RXF 393 = tested on: RXF 393
SF-268 = tested on: SF-268
SF-295 = tested on: SF-295
SF-539 = tested on: SF-539
SK-MEL-28 = tested on: SK-MEL-28
SK-MEL-2 = tested on: SK-MEL-2
SK-MEL-5 = tested on: SK-MEL-5
SK-OV-3 = tested on: SK-OV-3
SN12C = tested on: SN12C
SNB-19 = tested on: SNB-19
SNB-75 = tested on: SNB-75
SW-620 = tested on: SW-620
T47D = tested on: T47D
TK-10 = tested on: TK-10
U-251 = tested on: U-251
UACC-257 = tested on: UACC-257
UACC-62 = tested on: UACC-62
UO-31 = tested on: UO-31
HCC 2998 = tested on: HCC 2998
MCF7 = tested on: MCF7
OVCAR-4 = tested on: OVCAR-4
SR = tested on: SR

**Q.** How did the GI50 (786-0) turn out when `CC1=NNC(=O)C1C1CC(c2c[nH]c3ccccc23)=NN(C(N)=O)C1=O` (stereo unspecified) was run?
**A.** > 100 µM (inactive)

**Q.** And the GI50 (A498)?
**A.** > 100 µM (inactive)

**Q.** And the GI50 (A549)?
**A.** 64 µM (inactive)

**Q.** And the GI50 (ACHN)?
**A.** 97.9 µM (inactive)

**Q.** What about the GI50 (BT-549) of the same compound?
**A.** 34.3 µM (inactive)

**Q.** What about the GI50 (CAKI-1) of the same compound?
**A.** > 100 µM (inactive)

**Q.** And the GI50 (CCRF-CEM)?
**A.** 31 µM (inactive)

**Q.** What about the GI50 (COLO 205) of the same compound?
**A.** 53.2 µM (inactive)

**Q.** And the GI50 (DU-145)?
**A.** > 100 µM (inactive)

**Q.** And the GI50 (EKVX)?
**A.** > 100 µM (inactive)

**Q.** And the GI50 (HCT-116)?
**A.** 83.2 µM (inactive)

**Q.** And the GI50 (HCT-15)?
**A.** 37.8 µM

**Q.** And the GI50 (HL-60)?
**A.** 29 µM (inactive)

**Q.** And the GI50 (HOP-62)?
**A.** > 100 µM (inactive)

**Q.** What about the GI50 (HOP-92) of the same compound?
**A.** > 100 µM (inactive)

**Q.** What about the GI50 (HT-29) of the same compound?
**A.** > 100 µM (inactive)

**Q.** What about the GI50 (Hs-578T) of the same compound?
**A.** 85.1 µM (inactive)

**Q.** And the GI50 (IGROV-1)?
**A.** 4.4 µM (inactive)

**Q.** And the GI50 (K562)?
**A.** 33 µM (inactive)

**Q.** What about the GI50 (KM12) of the same compound?
**A.** 28.5 µM (inactive)

**Q.** What about the GI50 (LOX IMVI) of the same compound?
**A.** 62.7 µM (inactive)

**Q.** And the GI50 (M14)?
**A.** > 100 µM (inactive)

**Q.** What about the GI50 (MDA-MB-231) of the same compound?
**A.** > 100 µM (inactive)

**Q.** And the GI50 (MDA-MB-435)?
**A.** 56 µM (inactive)

**Q.** What about the GI50 (MDA-N) of the same compound?
**A.** 68.7 µM (inactive)

**Q.** What about the GI50 (MOLT-4) of the same compound?
**A.** 33.7 µM (inactive)

**Q.** What about the GI50 (Malme-3M) of the same compound?
**A.** > 100 µM (inactive)

**Q.** And the GI50 (NCI-H226)?
**A.** > 100 µM (inactive)

**Q.** And the GI50 (NCI-H23)?
**A.** 29.9 µM (inactive)

**Q.** What about the GI50 (NCI-H460) of the same compound?
**A.** 62.4 µM (inactive)

**Q.** And the GI50 (NCI-H522)?
**A.** 31.8 µM (inactive)

**Q.** And the GI50 (NCI/ADR-RES)?
**A.** > 100 µM (inactive)

**Q.** What about the GI50 (OVCAR-3) of the same compound?
**A.** > 100 µM (inactive)

**Q.** What about the GI50 (OVCAR-5) of the same compound?
**A.** > 100 µM (inactive)

**Q.** And the GI50 (OVCAR-8)?
**A.** 98.6 µM (inactive)

**Q.** And the GI50 (PC-3)?
**A.** 65.3 µM (inactive)

**Q.** And the GI50 (RPMI-8226)?
**A.** 30.8 µM (inactive)

**Q.** What about the GI50 (RXF 393) of the same compound?
**A.** 52.1 µM (inactive)

**Q.** What about the GI50 (SF-268) of the same compound?
**A.** > 100 µM (inactive)

**Q.** What about the GI50 (SF-295) of the same compound?
**A.** 61.2 µM (inactive)

**Q.** What about the GI50 (SF-539) of the same compound?
**A.** 91.4 µM (inactive)

**Q.** What about the GI50 (SK-MEL-28) of the same compound?
**A.** > 100 µM (inactive)

**Q.** And the GI50 (SK-MEL-2)?
**A.** > 100 µM (inactive)

**Q.** And the GI50 (SK-MEL-5)?
**A.** 82 µM (inactive)

**Q.** What about the GI50 (SK-OV-3) of the same compound?
**A.** > 100 µM (inactive)

**Q.** What about the GI50 (SN12C) of the same compound?
**A.** > 100 µM (inactive)

**Q.** What about the GI50 (SNB-19) of the same compound?
**A.** 75 µM (inactive)

**Q.** What about the GI50 (SNB-75) of the same compound?
**A.** 87.3 µM (inactive)

**Q.** What about the GI50 (SW-620) of the same compound?
**A.** 92.9 µM (inactive)

**Q.** And the GI50 (T47D)?
**A.** 61 µM (inactive)

**Q.** What about the GI50 (TK-10) of the same compound?
**A.** > 100 µM (inactive)

**Q.** And the GI50 (U-251)?
**A.** 51.2 µM (inactive)

**Q.** What about the GI50 (UACC-257) of the same compound?
**A.** > 100 µM (inactive)

**Q.** What about the GI50 (UACC-62) of the same compound?
**A.** 80.7 µM (inactive)

**Q.** And the GI50 (UO-31)?
**A.** 28.7 µM (inactive)

**Q.** `CN(NC(=O)c1cccs1)C1=NCCN1` was tested. Which GI50 (786-0) did it give?
**A.** > 100 µM (inactive)

**Q.** And the GI50 (A498)?
**A.** > 100 µM (inactive)

**Q.** And the GI50 (A549)?
**A.** > 100 µM (inactive)

**Q.** And the GI50 (ACHN)?
**A.** > 100 µM (inactive)

**Q.** And the GI50 (BT-549)?
**A.** > 100 µM (inactive)

**Q.** And the GI50 (CCRF-CEM)?
**A.** > 100 µM (inactive)

**Q.** What about the GI50 (COLO 205) of the same compound?
**A.** > 100 µM (inactive)

**Q.** What about the GI50 (EKVX) of the same compound?
**A.** > 100 µM (inactive)

**Q.** And the GI50 (HCC 2998)?
**A.** > 100 µM (inactive)

**Q.** What about the GI50 (HCT-116) of the same compound?
**A.** > 100 µM (inactive)

**Q.** What about the GI50 (HCT-15) of the same compound?
**A.** > 100 µM

**Q.** And the GI50 (HL-60)?
**A.** > 100 µM (inactive)

**Q.** What about the GI50 (HOP-62) of the same compound?
**A.** > 100 µM (inactive)

**Q.** And the GI50 (HOP-92)?
**A.** > 100 µM (inactive)

**Q.** And the GI50 (HT-29)?
**A.** > 100 µM (inactive)

**Q.** What about the GI50 (Hs-578T) of the same compound?
**A.** > 100 µM (inactive)

**Q.** What about the GI50 (IGROV-1) of the same compound?
**A.** > 100 µM (inactive)

**Q.** And the GI50 (K562)?
**A.** > 100 µM (inactive)

**Q.** What about the GI50 (KM12) of the same compound?
**A.** > 100 µM (inactive)

**Q.** What about the GI50 (LOX IMVI) of the same compound?
**A.** > 100 µM (inactive)

**Q.** What about the GI50 (M14) of the same compound?
**A.** > 100 µM (inactive)

**Q.** And the GI50 (MCF7)?
**A.** > 100 µM (inactive)

**Q.** And the GI50 (MDA-MB-231)?
**A.** > 100 µM (inactive)

**Q.** What about the GI50 (MDA-MB-435) of the same compound?
**A.** > 100 µM (inactive)

**Q.** What about the GI50 (MDA-N) of the same compound?
**A.** > 100 µM (inactive)

**Q.** And the GI50 (MOLT-4)?
**A.** > 100 µM (inactive)

**Q.** And the GI50 (Malme-3M)?
**A.** > 100 µM (inactive)

**Q.** And the GI50 (NCI-H226)?
**A.** > 100 µM (inactive)

**Q.** What about the GI50 (NCI-H23) of the same compound?
**A.** > 100 µM (inactive)

**Q.** And the GI50 (NCI-H460)?
**A.** > 100 µM (inactive)

**Q.** And the GI50 (NCI-H522)?
**A.** > 100 µM (inactive)

**Q.** What about the GI50 (NCI/ADR-RES) of the same compound?
**A.** > 100 µM (inactive)

**Q.** And the GI50 (OVCAR-3)?
**A.** > 100 µM (inactive)

**Q.** What about the GI50 (OVCAR-4) of the same compound?
**A.** > 100 µM (inactive)

**Q.** And the GI50 (OVCAR-5)?
**A.** > 100 µM (inactive)

**Q.** What about the GI50 (OVCAR-8) of the same compound?
**A.** > 100 µM (inactive)

**Q.** And the GI50 (PC-3)?
**A.** > 100 µM (inactive)

**Q.** What about the GI50 (RPMI-8226) of the same compound?
**A.** > 100 µM (inactive)

**Q.** What about the GI50 (RXF 393) of the same compound?
**A.** > 100 µM (inactive)

**Q.** What about the GI50 (SF-268) of the same compound?
**A.** > 100 µM (inactive)

**Q.** And the GI50 (SF-295)?
**A.** > 100 µM (inactive)

**Q.** What about the GI50 (SF-539) of the same compound?
**A.** > 100 µM (inactive)

**Q.** What about the GI50 (SK-MEL-28) of the same compound?
**A.** > 100 µM (inactive)

**Q.** What about the GI50 (SK-MEL-2) of the same compound?
**A.** > 100 µM (inactive)

**Q.** What about the GI50 (SK-MEL-5) of the same compound?
**A.** > 100 µM (inactive)

**Q.** What about the GI50 (SK-OV-3) of the same compound?
**A.** > 100 µM (inactive)

**Q.** What about the GI50 (SNB-19) of the same compound?
**A.** > 100 µM (inactive)

**Q.** And the GI50 (SNB-75)?
**A.** > 100 µM (inactive)

**Q.** And the GI50 (SR)?
**A.** > 100 µM (inactive)

**Q.** What about the GI50 (SW-620) of the same compound?
**A.** > 100 µM (inactive)

**Q.** What about the GI50 (T47D) of the same compound?
**A.** > 100 µM (inactive)

**Q.** And the GI50 (TK-10)?
**A.** 23.8 µM (inactive)

**Q.** And the GI50 (U-251)?
**A.** > 100 µM (inactive)

**Q.** And the GI50 (UACC-257)?
**A.** > 100 µM (inactive)

**Q.** And the GI50 (UACC-62)?
**A.** > 100 µM (inactive)

**Q.** And the GI50 (UO-31)?
**A.** > 100 µM (inactive)
